Results on 1 compound are retold here after patent US20250084056A1, “SUBSTITUTED OXOISOINDOLINYL PIPERIDINE-2,6-DIONE COMPOUNDS” (BRISTOL-MYERS SQUIBB COMPANY, priority 2023, published 2025).

One experiment deals with GSPT1 (Homo sapiens, UniProt P15170+Q96SW2). The experiment in a line: GSPT1 Cellular Degradation Assay (DF15-GSPT1-ePL). Further details: expressed in transfected cells. The format is cell-based. Particulars: DF15-GSPT1-ePL cells, 20 hours. Put shortly: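 DC50 and Dmax were derived from chemiluminescence, with 75% response set by the reference compound at […]. Readout was ePL enzyme-fragment complementation in a DF15 line expressing chimeric GSPT1. Cells were exposed to compound for 20 h at 37 °C in RPMI 1640 with 10% FBS, cooled 30 min, then lysed with substrate for 60 min.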
Chain of GSPT1 (P15170 whole entry, the tested form may be a part): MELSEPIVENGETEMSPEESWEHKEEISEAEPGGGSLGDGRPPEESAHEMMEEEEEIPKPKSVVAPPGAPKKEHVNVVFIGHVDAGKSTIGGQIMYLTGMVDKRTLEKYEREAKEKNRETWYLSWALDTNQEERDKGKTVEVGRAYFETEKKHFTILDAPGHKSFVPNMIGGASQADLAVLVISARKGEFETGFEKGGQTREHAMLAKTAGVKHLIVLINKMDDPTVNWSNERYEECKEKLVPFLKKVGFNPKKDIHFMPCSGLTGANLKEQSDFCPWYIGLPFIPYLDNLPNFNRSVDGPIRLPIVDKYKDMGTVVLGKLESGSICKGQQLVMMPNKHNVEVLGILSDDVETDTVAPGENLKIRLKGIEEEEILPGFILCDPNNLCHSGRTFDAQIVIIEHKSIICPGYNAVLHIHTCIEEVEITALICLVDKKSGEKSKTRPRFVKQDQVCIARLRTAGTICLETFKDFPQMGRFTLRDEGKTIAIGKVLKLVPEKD
Chain of GSPT1 (Q96SW2 whole entry, the tested form may be a part): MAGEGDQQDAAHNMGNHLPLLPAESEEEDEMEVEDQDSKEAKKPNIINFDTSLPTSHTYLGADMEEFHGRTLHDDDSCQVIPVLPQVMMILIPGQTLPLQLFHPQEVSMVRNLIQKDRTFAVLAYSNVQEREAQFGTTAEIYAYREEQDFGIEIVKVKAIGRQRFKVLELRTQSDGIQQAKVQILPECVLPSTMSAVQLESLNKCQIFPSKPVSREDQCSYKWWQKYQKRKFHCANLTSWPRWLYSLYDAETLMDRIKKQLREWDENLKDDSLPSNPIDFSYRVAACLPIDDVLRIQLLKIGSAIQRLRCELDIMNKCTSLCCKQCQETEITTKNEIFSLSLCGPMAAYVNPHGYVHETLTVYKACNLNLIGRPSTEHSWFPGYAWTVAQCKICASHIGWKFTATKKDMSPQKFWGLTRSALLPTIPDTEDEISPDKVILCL
Chain of GSPT1 (Q16531 whole entry partner, the tested form may be a part): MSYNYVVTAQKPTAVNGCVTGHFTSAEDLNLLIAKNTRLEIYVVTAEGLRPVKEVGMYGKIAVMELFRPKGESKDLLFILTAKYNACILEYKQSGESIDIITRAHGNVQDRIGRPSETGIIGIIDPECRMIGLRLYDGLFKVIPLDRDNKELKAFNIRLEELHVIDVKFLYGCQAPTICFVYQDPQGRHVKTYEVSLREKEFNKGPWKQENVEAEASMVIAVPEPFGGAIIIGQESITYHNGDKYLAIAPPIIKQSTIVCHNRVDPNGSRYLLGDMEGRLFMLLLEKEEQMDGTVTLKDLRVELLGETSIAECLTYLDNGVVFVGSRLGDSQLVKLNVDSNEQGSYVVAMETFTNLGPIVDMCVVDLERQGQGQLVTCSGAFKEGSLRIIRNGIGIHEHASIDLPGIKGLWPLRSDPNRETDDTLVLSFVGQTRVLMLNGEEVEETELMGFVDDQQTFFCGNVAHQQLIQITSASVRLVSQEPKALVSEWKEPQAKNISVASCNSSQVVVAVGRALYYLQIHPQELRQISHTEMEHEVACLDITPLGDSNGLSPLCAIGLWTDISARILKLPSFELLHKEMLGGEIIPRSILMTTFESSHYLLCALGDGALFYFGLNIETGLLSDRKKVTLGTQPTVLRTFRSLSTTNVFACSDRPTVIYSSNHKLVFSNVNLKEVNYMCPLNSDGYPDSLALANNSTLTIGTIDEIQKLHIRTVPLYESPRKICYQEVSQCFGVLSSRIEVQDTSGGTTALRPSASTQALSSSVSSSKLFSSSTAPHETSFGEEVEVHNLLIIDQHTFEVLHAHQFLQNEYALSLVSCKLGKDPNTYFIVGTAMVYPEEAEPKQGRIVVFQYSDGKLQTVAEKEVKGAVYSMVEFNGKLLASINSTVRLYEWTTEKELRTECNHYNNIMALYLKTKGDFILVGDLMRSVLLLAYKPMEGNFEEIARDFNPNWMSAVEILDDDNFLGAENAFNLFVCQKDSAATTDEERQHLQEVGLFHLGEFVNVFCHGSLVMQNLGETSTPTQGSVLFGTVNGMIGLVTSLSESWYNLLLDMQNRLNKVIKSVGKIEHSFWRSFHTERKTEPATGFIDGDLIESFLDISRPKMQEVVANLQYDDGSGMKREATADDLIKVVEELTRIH

A further experiment deals with Cyclin E1 (Homo sapiens, UniProt P24864+Q96SW2). The experiment in a line: Cyclin E1 Cellular Degradation Assay (MSD). It counts as cell-based. Further details: endogenous in cells; host or cells: OVCAR3. Put shortly: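 Cyclin E1 remaining after 24 h compound exposure of OVCAR3 cells was quantified in lysates by electrochemiluminescent MSD sandwich assay. DC50 (50% response concentration) and Dmax (maximum response) were calculated, with 110% response set by a reference compound at […].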
Chain of Cyclin E1 (P24864 whole entry): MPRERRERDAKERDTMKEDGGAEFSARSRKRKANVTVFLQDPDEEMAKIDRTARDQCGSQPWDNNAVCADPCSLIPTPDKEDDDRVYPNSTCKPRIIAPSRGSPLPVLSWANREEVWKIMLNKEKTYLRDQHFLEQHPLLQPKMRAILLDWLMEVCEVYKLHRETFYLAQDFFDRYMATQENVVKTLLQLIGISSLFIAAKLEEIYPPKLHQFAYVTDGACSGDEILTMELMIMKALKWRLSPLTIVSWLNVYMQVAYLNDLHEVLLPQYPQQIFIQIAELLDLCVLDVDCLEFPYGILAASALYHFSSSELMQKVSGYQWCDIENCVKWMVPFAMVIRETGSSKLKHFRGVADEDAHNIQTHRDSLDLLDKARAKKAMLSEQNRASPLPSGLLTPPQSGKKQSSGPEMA
Chain of Cyclin E1 (Q96SW2 whole entry): as the sequence (Q96SW2 whole entry, the tested form may be a part) above
Chain of Cyclin E1 (Q16531 whole entry partner): as the sequence (Q16531 whole entry partner, the tested form may be a part) above

For orientation: DC50 means the concentration at which degradation of the target reaches its halfway point. By Dmax is commonly meant the greatest extent of degradation seen.

Molecules are shown by their SMILES.

In the case of `COc1c(COC(=O)Nc2ccc(Oc3ccc(F)c(F)c3)cc2)ccc2c1C(=O)N([C@H]1CCC(=O)NC1=O)C2` (single isomer, unassigned) [Example 35, {2-[(3 S)-2,6-dioxopiperidin-3-yl]-4-methoxy-3-oxo-2,3-dihydro-1H-isoindol-5-yl}methyl N-[4-(3,4-difluorophenoxy)phenyl]carbamate], the DC50 was above 14000 nM on GSPT1 and 159 nM at Cyclin E1 (Cyclin E1 cellular degradation). The Dmax worked out at 46% on GSPT1 and 107% on Cyclin E1 (Cyclin E1 cellular degradation, maximum degradation). Also, at Cyclin E1 (selectivity for degradation of Cyclin E1 over GSPT1), the “Ratio of GSPT1 DC50/Cyclin E1 DC50” value is on record as above 88.
